Data: ChEMBL document CHEMBL1131670, “N-hydroxyurea and hydroxamic acid inhibitors of cyclooxygenase and 5-lipoxygenase” (Bioorg Med Chem Lett, 1999)
Blank lines part the entries; values can stand above or below the compound they belong to.

Legend:
Cyclooxygenase [1] = biological target: T1, Cyclooxygenase (Rattus norvegicus, UniProt P35355+Q63921); experiment: Inhibitory activity against cyclooxygenase (COX) in intact rat […] leukemia cells (RBL-1); assay type: cell-based
T1 sequence (P35355 whole entry): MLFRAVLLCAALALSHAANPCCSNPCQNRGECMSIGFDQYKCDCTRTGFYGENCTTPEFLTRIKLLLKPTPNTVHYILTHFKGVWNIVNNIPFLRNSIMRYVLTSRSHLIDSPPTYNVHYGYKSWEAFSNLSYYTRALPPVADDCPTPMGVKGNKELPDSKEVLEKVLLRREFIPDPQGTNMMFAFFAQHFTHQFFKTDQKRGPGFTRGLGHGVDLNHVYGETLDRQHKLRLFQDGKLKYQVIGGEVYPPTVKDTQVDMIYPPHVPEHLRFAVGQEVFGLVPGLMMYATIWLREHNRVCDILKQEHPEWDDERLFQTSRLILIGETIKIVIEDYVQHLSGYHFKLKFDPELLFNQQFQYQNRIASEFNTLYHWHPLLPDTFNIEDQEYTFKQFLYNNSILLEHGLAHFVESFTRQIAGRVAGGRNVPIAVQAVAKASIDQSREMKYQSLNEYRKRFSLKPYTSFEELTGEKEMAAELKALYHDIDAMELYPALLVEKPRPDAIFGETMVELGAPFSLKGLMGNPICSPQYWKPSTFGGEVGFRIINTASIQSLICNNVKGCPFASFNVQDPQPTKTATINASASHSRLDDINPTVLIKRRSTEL
T1 sequence (Q63921 whole entry): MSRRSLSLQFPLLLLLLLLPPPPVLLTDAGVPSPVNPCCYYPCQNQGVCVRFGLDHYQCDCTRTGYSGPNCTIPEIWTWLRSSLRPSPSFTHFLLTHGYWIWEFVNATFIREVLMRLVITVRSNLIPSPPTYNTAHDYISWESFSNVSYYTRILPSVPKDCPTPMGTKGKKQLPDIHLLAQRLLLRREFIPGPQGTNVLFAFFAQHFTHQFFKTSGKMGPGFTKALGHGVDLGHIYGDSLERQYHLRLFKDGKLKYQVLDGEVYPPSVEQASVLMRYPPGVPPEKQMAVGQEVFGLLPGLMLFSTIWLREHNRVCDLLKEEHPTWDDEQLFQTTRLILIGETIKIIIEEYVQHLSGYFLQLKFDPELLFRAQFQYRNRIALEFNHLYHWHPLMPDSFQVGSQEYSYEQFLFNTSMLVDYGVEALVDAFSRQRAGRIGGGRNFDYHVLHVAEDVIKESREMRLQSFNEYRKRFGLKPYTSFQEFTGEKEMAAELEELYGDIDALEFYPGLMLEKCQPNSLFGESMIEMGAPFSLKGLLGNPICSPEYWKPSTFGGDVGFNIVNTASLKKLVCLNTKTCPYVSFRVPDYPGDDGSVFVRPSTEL

[2] = biological target: T2, Prostaglandin G/H synthase 1 (Ovis aries) (UniProt P05979); experiment: Inhibitory activity against Cyclooxygenase using sheep seminal vesicle (SSV) enzyme (COX-1)at 10 uM; assay type: tissue-based
T2 sequence (whole entry): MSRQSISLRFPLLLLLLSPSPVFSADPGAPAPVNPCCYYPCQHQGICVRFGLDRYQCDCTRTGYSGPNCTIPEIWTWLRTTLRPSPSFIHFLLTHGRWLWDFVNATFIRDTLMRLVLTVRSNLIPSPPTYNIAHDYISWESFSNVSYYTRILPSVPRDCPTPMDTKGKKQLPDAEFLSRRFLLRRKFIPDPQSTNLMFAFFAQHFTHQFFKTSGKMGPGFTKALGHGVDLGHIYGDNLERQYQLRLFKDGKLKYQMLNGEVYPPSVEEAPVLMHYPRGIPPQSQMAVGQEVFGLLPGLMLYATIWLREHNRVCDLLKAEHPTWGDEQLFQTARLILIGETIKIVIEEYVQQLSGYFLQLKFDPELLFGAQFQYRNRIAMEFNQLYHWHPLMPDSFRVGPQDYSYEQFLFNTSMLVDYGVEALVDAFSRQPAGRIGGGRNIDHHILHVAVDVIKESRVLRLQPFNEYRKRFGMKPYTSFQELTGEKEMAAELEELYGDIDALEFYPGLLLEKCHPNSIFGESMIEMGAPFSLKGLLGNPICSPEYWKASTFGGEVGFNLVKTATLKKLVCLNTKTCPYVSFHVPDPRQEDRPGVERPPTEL

[3] = biological target: T3, Polyunsaturated fatty acid 5-lipoxygenase (Rattus norvegicus) (UniProt P12527); experiment: Inhibitory activity against 5-lipoxygenase (5-LO) using broken rat […] leukemia cells (RBL-1)at 10 uM; assay type: cell-based
T3 sequence (whole entry): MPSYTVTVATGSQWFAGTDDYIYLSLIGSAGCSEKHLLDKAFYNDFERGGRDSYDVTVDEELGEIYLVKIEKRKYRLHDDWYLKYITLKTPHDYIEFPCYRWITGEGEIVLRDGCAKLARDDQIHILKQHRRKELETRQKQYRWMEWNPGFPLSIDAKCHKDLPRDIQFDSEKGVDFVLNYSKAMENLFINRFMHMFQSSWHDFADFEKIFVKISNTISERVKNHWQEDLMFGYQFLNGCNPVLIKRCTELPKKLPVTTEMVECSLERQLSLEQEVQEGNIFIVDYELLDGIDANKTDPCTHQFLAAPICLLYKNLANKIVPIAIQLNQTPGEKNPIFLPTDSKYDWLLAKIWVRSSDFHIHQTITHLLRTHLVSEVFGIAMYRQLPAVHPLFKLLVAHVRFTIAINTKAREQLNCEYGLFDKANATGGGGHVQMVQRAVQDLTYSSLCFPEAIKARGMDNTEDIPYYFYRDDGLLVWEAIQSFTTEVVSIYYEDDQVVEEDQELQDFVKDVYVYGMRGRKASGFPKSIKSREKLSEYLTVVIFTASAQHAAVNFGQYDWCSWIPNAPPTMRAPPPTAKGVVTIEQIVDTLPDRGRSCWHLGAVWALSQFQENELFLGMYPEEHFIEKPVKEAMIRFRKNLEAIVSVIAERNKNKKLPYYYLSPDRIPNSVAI

Cyclooxygenase [4] = biological target: T1, Cyclooxygenase; experiment: (§1) Inhibitory activity against Cyclooxygenase (COX) using broken rat […] leukemia cells (RBL-1); assay type: cell-based
[5] = biological target: Cyclooxygenase (Rattus norvegicus) (UniProt P35355+Q63921); experiment: as §1; assay type: cell-based; conditions: concentration not given here
[6] = biological target: T2, Prostaglandin G/H synthase 1 (Ovis aries); experiment: Inhibitory activity against Cyclooxygenase using sheep seminal vesicle (SSV) enzyme (COX-1) at 10 uM; assay type: tissue-based
[7] = biological target: T4, Polyunsaturated fatty acid 5-lipoxygenase (Homo sapiens) (UniProt P09917); experiment: Inhibitory activity against 5-lipoxygenase (5-LO) in after oral administration of 5 mg/kg at 8 hr; assay type: organism-based; parameters: dose 5 mg/kg; conditions: Canis lupus familiaris; at 5 mg/kg
T4 sequence (whole entry): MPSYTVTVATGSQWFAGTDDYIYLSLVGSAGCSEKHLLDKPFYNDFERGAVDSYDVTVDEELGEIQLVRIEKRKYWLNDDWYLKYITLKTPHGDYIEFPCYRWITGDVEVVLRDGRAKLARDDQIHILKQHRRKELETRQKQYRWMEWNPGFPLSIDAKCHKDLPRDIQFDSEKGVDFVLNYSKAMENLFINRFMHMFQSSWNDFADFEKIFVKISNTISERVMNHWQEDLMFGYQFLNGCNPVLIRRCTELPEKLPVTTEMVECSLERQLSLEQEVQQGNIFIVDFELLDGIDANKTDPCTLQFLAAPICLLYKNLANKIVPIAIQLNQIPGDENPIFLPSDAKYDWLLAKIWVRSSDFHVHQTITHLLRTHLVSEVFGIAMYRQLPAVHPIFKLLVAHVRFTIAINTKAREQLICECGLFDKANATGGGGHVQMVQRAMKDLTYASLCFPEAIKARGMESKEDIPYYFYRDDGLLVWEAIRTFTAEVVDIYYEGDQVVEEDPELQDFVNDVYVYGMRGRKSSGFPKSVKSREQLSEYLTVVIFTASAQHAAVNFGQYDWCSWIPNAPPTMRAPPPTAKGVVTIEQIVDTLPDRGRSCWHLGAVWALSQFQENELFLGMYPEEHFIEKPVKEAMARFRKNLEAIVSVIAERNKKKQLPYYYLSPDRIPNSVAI

[8] = biological target: T4, Polyunsaturated fatty acid 5-lipoxygenase (Homo sapiens); experiment: Inhibitory activity against 5-lipoxygenase (5-LO) in after oral administration of 5 mg/kg at 2 hr; assay type: organism-based; parameters: dose 5 mg/kg; conditions: Canis lupus familiaris; at 5 mg/kg
[9] = biological target: T4, Polyunsaturated fatty acid 5-lipoxygenase (Homo sapiens); experiment: Inhibitory activity against 5-lipoxygenase (5-LO) in after oral administration of 5 mg/kg at 4 hr; assay type: organism-based; parameters: dose 5 mg/kg; conditions: Canis lupus familiaris; at 5 mg/kg
[10] = biological target: T5, Cyclooxygenase (Homo sapiens) (UniProt P35354+P23219); experiment: Inhibitory activity against cyclooxygenase (COX) in after oral administration of 5 mg/kg at 2 hr to canine; assay type: organism-based; parameters: dose 5 mg/kg; conditions: Canis lupus familiaris; target entry is the homologue from another species; at 5 mg/kg
[11] = biological target: T4, Polyunsaturated fatty acid 5-lipoxygenase (Homo sapiens); experiment: Inhibitory activity against 5-lipoxygenase (5-LO) in after oral administration of 5 mg/kg at 24 hr r; assay type: organism-based; parameters: dose 5 mg/kg; conditions: Canis lupus familiaris; at 5 mg/kg
[12] = biological target: T5, Cyclooxygenase (Homo sapiens); experiment: Inhibitory activity against cyclooxygenase (COX) in after oral administration of 5 mg/kg at 24 hr r; assay type: organism-based; parameters: dose 5 mg/kg; conditions: Canis lupus familiaris; at 5 mg/kg
[13] = biological target: T5, Cyclooxygenase (Homo sapiens); experiment: Inhibitory activity against cyclooxygenase (COX) in after oral administration of 5 mg/kg at 4 hr; assay type: organism-based; parameters: dose 5 mg/kg; conditions: Canis lupus familiaris; at 5 mg/kg
[14] = biological target: T5, Cyclooxygenase (Homo sapiens); experiment: Inhibitory activity against cyclooxygenase (COX) in after oral administration of 5 mg/kg at 8 hr; assay type: organism-based; parameters: dose 5 mg/kg; conditions: Canis lupus familiaris; at 5 mg/kg

SMILES: CCC(C#Cc1cc(-c2ccc(Cl)cc2)n(-c2ccc(OC)cc2)n1)N(O)C(N)=O (stereo not given)
IC50 (Cyclooxygenase [1]): 70.4 µM
inhibition [2]: 0%
inhibition [3]: 91%

SMILES: COc1ccc(-n2nc(C#CC(C)N(O)C(N)=O)cc2-c2ccc(C)cc2)cc1 (stereo not given)
IC50 (Cyclooxygenase [4]): 9.4 µM
IC50 (Cyclooxygenase [1]): 1.4 µM
inhibition [2]: 10%

SMILES: COc1ccc(-n2nc(C#CCN(O)C(C)=O)cc2-c2ccc(C)cc2)cc1
IC50 (Cyclooxygenase [1]): 0.03 µM
inhibition [5]: 100%
inhibition [3]: 100%
inhibition [6]: 74%

The remaining lines, values ahead:

inhibition [2]: 14%
inhibition [3]: 82%
SMILES: CCCNC(=O)N(O)C(C)C#Cc1cc(-c2ccc(Cl)cc2)n(-c2ccc(OC)cc2)n1 (stereo not given)

inhibition [7]: 31%
inhibition [8]: 34%
inhibition [9]: 20%
inhibition [10]: 92%
inhibition [11]: 12%
inhibition [12]: 68%
inhibition [13]: 75%
inhibition [14]: 62%
SMILES: COc1ccc(-n2nc(C#CC(C)N(O)C(C)=O)cc2-c2ccc(Cl)cc2)cc1 (stereo not given)
